Test results published in ChEMBL document CHEMBL3045912, “Prediction of fungicidal activities of rice blast disease based on least-squares support vector machines and project pursuit regression” (2008).

These compounds were tested on Pyricularia grisea (assay: Fungicidal activity against Magnaporthe grisea in rice seedlings assessed as area of infection on leaves treated 24 hr prior to spore inoculation measured 5 days after the fungal challenge).
Assay type: functional

Row | Structure (SMILES) | log(%)
1 | Cn1c(CC(=O)Nc2ccc([N+](=O)[O-])cc2)cs/c1=N/c1ccc(F)cc1 | 0.9
2 | CC(C)c1ccc(NC(=O)Cc2cs/c(=N/c3ccc(C(F)(F)F)cc3)n2C)cc1 | 1.8
3 | COc1ccc(NC(=O)Cc2cs/c(=N\c3ccccc3C(C)C)n2C)cc1 | 1.9
4 | CCc1ccc(NC(=O)Cc2cs/c(=N/c3ccc(Cl)cc3)n2C)cc1 | 2
5 | COc1ccccc1/N=c1\scc(CC(=O)Nc2ccc(OC(F)(F)F)cc2)n1C | 0.7
6 | CCOc1ccc(NC(=O)Cc2cs/c(=N\c3ccc(F)cc3F)n2C)cc1 | 1.9
7 | Cn1c(CC(=O)Nc2ccc(Oc3ccccc3)cc2)cs/c1=N/c1ccc(Oc2ccccc2)cc1 | 1.4
8 | CCc1ccc(NC(=O)Cc2cs/c(=N/c3ccc(C(C)=O)cc3)n2C)cc1 | 2
9 | COc1ccc(NC(=O)Cc2cs/c(=N\c3cccc(C(F)(F)F)c3)n2C)cc1 | 2
10 | Cn1c(CC(=O)Nc2ccc(C(F)F)cc2)cs/c1=N\c1ccc(Br)cc1 | 1.4
11 | CCCCCCc1ccc(/N=c2/scc(CC(=O)Nc3ccc(CC)cc3)n2C)cc1 | 2
12 | CC(C)Oc1ccc(/N=c2/scc(CC(=O)Nc3ccc(C(F)F)cc3)n2C)cc1 | 1.7
13 | Cn1c(CC(=O)Nc2ccc(OC(F)(F)F)cc2)cs/c1=N\c1cccc(Br)c1 | 1.7
14 | CCc1ccc(NC(=O)Cc2cs/c(=N\c3ccc(Br)cc3F)n2C)cc1 | 2
15 | Cn1c(CC(=O)Nc2ccc(Oc3ccccc3)cc2)cs/c1=N\c1cccc(Br)c1 | 0.9
16 | CCc1ccc(NC(=O)Cc2cs/c(=N\c3ccc(C)cc3Cl)n2C)cc1 | 2

Row | Structure (SMILES) | log(%)
17 | CCc1ccc(NC(=O)Cc2cs/c(=N/c3ccc(CC#N)cc3)n2C)cc1 | 2
18 | Cn1c(CC(=O)Nc2ccc(OC(F)(F)F)cc2)cs/c1=N\c1ccc(F)cc1 | 0.9
19 | Cn1c(CC(=O)Nc2ccc([N+](=O)[O-])cc2)cs/c1=N/c1ccc(C#N)cc1 | 0.7
20 | CCCCc1ccc(NC(=O)Cc2cs/c(=N\c3ccc(F)c(Cl)c3)n2C)cc1 | 1.3
21 | COc1ccc(NC(=O)Cc2cs/c(=N\c3ccc(Cl)c(C(F)(F)F)c3)n2C)cc1 | 2
22 | COc1ccc(NC(=O)Cc2cs/c(=N/c3ccc([N+](=O)[O-])cc3)n2C)cc1 | 2
23 | CCCCOc1ccc(NC(=O)Cc2cs/c(=N/c3ccc(C(F)(F)F)cc3)n2C)cc1 | 1
24 | CCc1ccc(NC(=O)Cc2cs/c(=N/c3ccc([N+](=O)[O-])cc3OC)n2C)cc1 | 1.81
25 | CCCCc1ccc(NC(=O)Cc2cs/c(=N\c3cccc(F)c3)n2C)cc1 | 1
26 | Cn1c(CC(=O)Nc2ccc(OC(F)(F)F)cc2)cs/c1=N\c1cccc(C(F)(F)F)c1 | 1.7
27 | CCCCOc1ccc(NC(=O)Cc2cs/c(=N\c3cccc(F)c3)n2C)cc1 | 1
28 | Cn1c(CC(=O)Nc2ccc(Cl)cc2)cs/c1=N/c1ccc(-c2ccccc2)cc1 | 1.98
29 | CCc1ccc(NC(=O)Cc2cs/c(=N\c3ccc(OC)cc3C)n2C)cc1 | 2
30 | Cn1c(CC(=O)Nc2ccc(Br)cc2)cs/c1=N\c1cccc(F)c1 | 1.9
31 | COc1ccc(/N=c2/scc(CC(=O)Nc3ccc(OC(F)(F)F)cc3)n2C)cc1 | 1.4
32 | COc1ccc(/N=c2\scc(CC(=O)Nc3ccc(C(F)F)cc3)n2C)cc1 | 1.4
